Experimental data: ChEMBL document CHEMBL1201862, “PubChem BioAssay data set” (2004)
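Briefly, cells in 96-well plates were exposed to five compound concentrations for 48 h, and endpoints were estimated by linear interpolation. Abbreviation: GI50, concentration required for 50% inhibition of growth.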 The source made the active and inactive calls. No stated cut-off is given here; in the data, active = GI50 up to about 1.1 µM and inactive = higher.

Assays:
Assay in all cases: NCI anticancer screen, dose series, 48 h
[1] = system: NCI-H460
[2] = system: SNB-78
[3] = system: CCRF-CEM
[4] = system: SK-MEL-2
[5] = system: MOLT-4
[6] = system: DMS-114
[7] = system: CAKI-1
[8] = system: NCI-H226
[9] = system: A498
[10] = system: KM-20L2
[11] = system: HOP-92
[12] = system: SN12C
[13] = system: SW-620
[14] = system: HL-60
[15] = system: LOX IMVI
[16] = system: M14
[17] = system: HCT-116
[18] = system: NCI-H23
[19] = system: UACC-257
[20] = system: EKVX
[21] = system: Malme-3M
[22] = system: IGROV-1
[23] = system: OVCAR-3
[24] = system: NCI-H522
[25] = system: XF498
[26] = system: OVCAR-5
[27] = system: SK-MEL-28
[28] = system: SR
[29] = system: HCT-15
[30] = system: M19-MEL
[31] = system: UACC-62
[32] = system: DLD-1
[33] = system: COLO 205
[34] = system: SNB-75
[35] = system: TK-10
[36] = system: 786-0
[37] = system: KM12
[38] = system: OVCAR-4
[39] = system: HOP-62
[40] = system: SF-268
[41] = system: HOP-18
[42] = system: LXFL 529
[43] = system: SF-295
[44] = system: RPMI-8226
[45] = system: A549
[46] = system: UO-31
[47] = system: RXF 393
[48] = system: OVCAR-8
[49] = system: HT-29
[50] = system: SK-OV-3
[51] = system: U-251
[52] = system: DMS-273
[53] = system: HCC 2998
[54] = system: SK-MEL-5
[55] = system: ACHN
[56] = system: K562
[57] = system: SNB-19
[58] = system: SF-539

## c1ccc2c3c([nH]c2c1)C1(CCCCC1)c1c([nH]c2ccccc12)C31CCCCC1
[1]
  GI50: 34.7 µM (inactive)
[2]
  GI50: 18.8 µM (inactive)
[3]
  GI50: 79.8 µM (inactive)
[4]
  GI50: 18.8 µM (inactive)
[5]
  GI50: 47.5 µM (inactive)
[6]
  GI50: 31.3 µM (inactive)
[7]
  GI50: 38.6 µM (inactive)
[8]
  GI50: 27.5 µM (inactive)
[9]
  GI50: 24.2 µM (inactive)
[10]
  GI50: 36.1 µM (inactive)
[11]
  GI50: 20.4 µM (inactive)
[12]
  GI50: 22.9 µM (inactive)
[13]
  GI50: > 100 µM (inactive)
[14]
  GI50: > 100 µM (inactive)
[15]
  GI50: 34.4 µM (inactive)
[16]
  GI50: 30 µM (inactive)
[17]
  GI50: 15.7 µM (inactive)
[18]
  GI50: 31 µM (inactive)
[19]
  GI50: 50.4 µM (inactive)
[20]
  GI50: 26.2 µM (inactive)
[21]
  GI50: 23.1 µM (inactive)
[22]
  GI50: 31.3 µM (inactive)
[23]
  GI50: > 100 µM (inactive)
[24]
  GI50: 30 µM (inactive)
[25]
  GI50: > 100 µM (inactive)
[26]
  GI50: > 100 µM (inactive)
[27]
  GI50: 37.1 µM (inactive)
[28]
  GI50: 22.1 µM (inactive)
[29]
  GI50: > 100 µM
[30]
  GI50: 46 µM (inactive)
[31]
  GI50: 23.9 µM (inactive)
[32]
  GI50: 96.2 µM (inactive)
[33]
  GI50: 37.9 µM (inactive)
[34]
  GI50: 15.9 µM (inactive)
[35]
  GI50: 30.9 µM (inactive)
[36]
  GI50: 15.1 µM (inactive)
[37]
  GI50: > 100 µM (inactive)
[38]
  GI50: 10.6 µM (inactive)
[39]
  GI50: 19.5 µM (inactive)
[40]
  GI50: 23.6 µM (inactive)
[41]
  GI50: 20.6 µM (inactive)
[42]
  GI50: 40.8 µM (inactive)
[43]
  GI50: 24.7 µM (inactive)
[44]
  GI50: 56.8 µM (inactive)
[45]
  GI50: 39.3 µM (inactive)
[46]
  GI50: 29 µM (inactive)
[47]
  GI50: 25.4 µM (inactive)
[48]
  GI50: 17.8 µM (inactive)
[49]
  GI50: > 100 µM (inactive)
[50]
  GI50: 18.2 µM (inactive)
[51]
  GI50: 30.2 µM (inactive)
[52]
  GI50: 22.3 µM (inactive)
[53]
  GI50: 32.3 µM (inactive)
[54]
  GI50: 26.2 µM (inactive)
[55]
  GI50: 17.5 µM (inactive)
[56]
  GI50: 35.6 µM (inactive)
[57]
  GI50: 54.5 µM (inactive)

## c1ccc2c3nc(C4CCCC4)nc-3c(NC3CCCC3)[nH]c2c1
[1]
  GI50: 8.04 µM (inactive)
[2]
  GI50: 45.3 µM (inactive)
[3]
  GI50: 5.89 µM (inactive)
[4]
  GI50: 14 µM (inactive)
[5]
  GI50: 6 µM (inactive)
[6]
  GI50: 17.8 µM (inactive)
[8]
  GI50: 24.7 µM (inactive)
[58]
  GI50: 15.3 µM (inactive)
[9]
  GI50: 21.3 µM (inactive)
[10]
  GI50: 5 µM (inactive)
[11]
  GI50: 19.3 µM (inactive)
[12]
  GI50: 32.7 µM (inactive)
[13]
  GI50: 5.43 µM (inactive)
[14]
  GI50: 2.3 µM (inactive)
[15]
  GI50: 15.8 µM (inactive)
[16]
  GI50: 2.98 µM (inactive)
[17]
  GI50: 5.66 µM (inactive)
[18]
  GI50: 15.7 µM (inactive)
[19]
  GI50: 5.94 µM (inactive)
[20]
  GI50: 57.4 µM (inactive)
[21]
  GI50: 16.6 µM (inactive)
[22]
  GI50: 20.3 µM (inactive)
[23]
  GI50: 12.5 µM (inactive)
[24]
  GI50: 18.4 µM (inactive)
[25]
  GI50: 19.6 µM (inactive)
[26]
  GI50: 22.5 µM (inactive)
[27]
  GI50: 13 µM (inactive)
[28]
  GI50: 10.3 µM (inactive)
[29]
  GI50: 8.49 µM
[30]
  GI50: 13.2 µM (inactive)
[31]
  GI50: 14 µM (inactive)
[32]
  GI50: 30 µM (inactive)
[33]
  GI50: 19 µM (inactive)
[34]
  GI50: 66.1 µM (inactive)
[35]
  GI50: 35.2 µM (inactive)
[36]
  GI50: 8.07 µM (inactive)
[37]
  GI50: 7.08 µM (inactive)
[38]
  GI50: 14.4 µM (inactive)
[39]
  GI50: 19.1 µM (inactive)
[40]
  GI50: 16.9 µM (inactive)
[41]
  GI50: 16 µM (inactive)
[42]
  GI50: 8.32 µM (inactive)
[43]
  GI50: 16.8 µM (inactive)
[44]
  GI50: 21.2 µM (inactive)
[45]
  GI50: 21 µM (inactive)
[46]
  GI50: 21.6 µM (inactive)
[47]
  GI50: 14.7 µM (inactive)
[48]
  GI50: 6.87 µM (inactive)
[49]
  GI50: 4.6 µM (inactive)
[50]
  GI50: 32.1 µM (inactive)
[51]
  GI50: 3.23 µM (inactive)
[52]
  GI50: 8.43 µM (inactive)
[53]
  GI50: 6.76 µM (inactive)
[54]
  GI50: 6.98 µM (inactive)
[55]
  GI50: 25.7 µM (inactive)
[56]
  GI50: 7.83 µM (inactive)
[57]
  GI50: 45.1 µM (inactive)
